Source: patent publication US20250034170A1, “SMALL MOLECULE MODULATORS OF GLUCOCEREBROSIDASE ACTIVITY AND USES THEREOF” (Vanqua Bio, Inc., priority 2021, published 2025)
pEC50: −log10 of the molar value.

Target: T1, GCase (Homo sapiens, UniProt P04062)
T1 construct: endogenous in cells; host or cells: HeLa cells
T1 sequence (P04062 40-536): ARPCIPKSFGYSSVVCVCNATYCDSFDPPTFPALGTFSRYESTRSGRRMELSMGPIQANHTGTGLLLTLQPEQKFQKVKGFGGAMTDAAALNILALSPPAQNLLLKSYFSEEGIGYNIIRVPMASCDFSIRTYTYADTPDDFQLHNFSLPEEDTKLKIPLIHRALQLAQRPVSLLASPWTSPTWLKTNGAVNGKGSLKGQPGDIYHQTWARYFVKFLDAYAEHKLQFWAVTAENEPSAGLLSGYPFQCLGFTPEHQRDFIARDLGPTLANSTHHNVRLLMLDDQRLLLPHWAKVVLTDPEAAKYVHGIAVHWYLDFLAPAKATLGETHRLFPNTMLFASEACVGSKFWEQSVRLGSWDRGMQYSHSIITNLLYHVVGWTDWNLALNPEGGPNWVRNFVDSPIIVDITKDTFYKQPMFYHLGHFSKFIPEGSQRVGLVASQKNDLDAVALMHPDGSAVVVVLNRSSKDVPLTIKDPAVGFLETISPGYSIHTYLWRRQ
Assay: activation of GCase in a live cell PFB assay in HELA cells
Assay type: cell-based
Settings: EC50 given as range classes
Protocol: Exemplary compounds were evaluated for activation of GCase in a live cell PFB assay in HELA cells (essentially as described in Ysselstein et al., “LRRK2 kinase activity regulates lysosomal glucocerebrosidase in neurons derived from Parkinson's disease patients” Nature Communications (2019) 10:5570). […] EC50 ranges: A: <10 μM; B: >10-50 μM; C: >50-100 μM; D: >100 μM.

SMILES | pEC50
Cc1nn(CC(F)F)c2nc(N3CC4(CC3=O)CN(c3ccnc(C(F)(F)F)c3)C4)cnc12 [Cmpd 1007] | > 5.00
O=C1CC2(CN(c3ccnc(C(F)(F)F)c3)C2)CN1c1ncc2cnn(C3COC3)c2n1 [Cmpd 1008] | 4.30 to 5.00
Cc1nn(C2COC2)c2nc(N3CC4(CC3=O)CN(c3ccnc(C(F)(F)F)c3)C4)ncc12 [Cmpd 1009] | 4.30 to 5.00
O=C1N(c2cnc3cnn(CC(F)F)c3n2)CCC12CN(c1ccc(C(F)(F)F)nc1)C2 [Cmpd 1010] | 4.00 to 4.30
O=C1N(c2cnc3cnn(CC(F)F)c3n2)CCC12CN(c1ccc(C(F)(F)F)cn1)C2 [Cmpd 1011] | 4.30 to 5.00
O=C1N(c2cnc3cnn(CC(F)F)c3n2)CCC12CN(c1cnc(C(F)(F)F)nc1)C2 [Cmpd 1012] | 4.30 to 5.00
Cn1c(N2CCC3(CCN(c4ccnc(C(F)(F)F)c4)C3)CC2)nc2c(cnn2CC(F)F)c1=O [Cmpd 1013] | > 5.00
Cn1c(N2CCC3(CCN(c4ccnc(C(F)(F)F)n4)C3)CC2)nc2c(cnn2CC(F)F)c1=O [Cmpd 1014] | > 5.00
Cn1c(N2CCC3(CCN(c4cnc(C(F)(F)F)nc4)C3)CC2)nc2c(cnn2CC(F)F)c1=O [Cmpd 1015] | 4.30 to 5.00
Cn1c(N2CCC3(CCN(c4cnc(C(F)(F)F)nc4)C3)CC2)nc2c(cnn2CC(F)(F)F)c1=O [Cmpd 1016] | > 5.00
Cn1c(N2CCC3(CN(c4ccnc(C(F)(F)F)c4)C3)C2)nc2c(cnn2CC(F)(F)F)c1=O [Cmpd 1017] | 4.30 to 5.00
Cn1c(N2CCC3(CN(c4cnc(C(F)(F)F)nc4)C3)C2)nc2c(cnn2CC(F)(F)F)c1=O [Cmpd 1018] | 4.30 to 5.00
CCn1c(N2CCC3(CC2)CC(=O)N(c2ccnc(C(F)(F)F)c2)C3)nc2c(cnn2CC(F)F)c1=O [Cmpd 1019] | > 5.00
Cc1nn(CC(F)F)c2nc(N3CCC4(CC3)CC(=O)N(c3ccnc(C(F)(F)F)c3)C4)n(C)c(=O)c12 [Cmpd 1020] | > 5.00
COc1ncc(N2CCC3(CN(c4ccnc(C(F)(F)F)c4)C3)C2)nc1-c1nncs1 [Cmpd 1021] | 4.30 to 5.00
COc1ncc(N2CCC3(CN(c4cnc(C(F)(F)F)nc4)C3)C2)nc1-c1nncs1 [Cmpd 1022] | < 4.00
FC(F)(F)c1cc(N2CC3(CCN(c4cncc(-c5nnc(C(F)(F)F)s5)n4)C3)C2)ccn1 [Cmpd 1023] | > 5.00
FC(F)(F)c1cc(N2CC3(CCN(c4cncc(-c5nnc(C(F)(F)F)o5)n4)C3)C2)ccn1 [Cmpd 1024] | 4.00 to 4.30
FC(F)(F)c1ncc(N2CC3(CCN(c4cncc(-c5nnc(C(F)(F)F)s5)n4)C3)C2)cn1 [Cmpd 1025] | > 5.00
FC(F)(F)c1ncc(N2CC3(CCN(c4cncc(-c5nnc(C(F)(F)F)o5)n4)C3)C2)cn1 [Cmpd 1026] | 4.00 to 4.30
FC(F)(F)c1cc(N2CC3(CCN(c4cncc(-c5nccs5)n4)C3)C2)ccn1 [Cmpd 1027] | 4.30 to 5.00
FC(F)(F)c1cc(N2CC3(CCN(c4cncc(-c5ncc(C(F)(F)F)s5)n4)C3)C2)ccn1 [Cmpd 1028] | 4.30 to 5.00
FC(F)(F)c1cc(N2CC3(CCN(c4cncc(-c5cncs5)n4)C3)C2)ccn1 [Cmpd 1029] | > 5.00
CC(C)c1cnc(C(F)(F)F)cc1N1CC2(CCN(c3cnc4cnn(CC(F)F)c4n3)C2)C1 [Cmpd 1030] | > 5.00
CCCc1cnc(C(F)(F)F)cc1N1CC2(CCN(c3cnc4cnn(CC(F)F)c4n3)C2)C1 [Cmpd 1031] | > 5.00
CCc1cnc(C(F)(F)F)cc1N1CC2(CCN(c3cnc4cnn(CC(F)F)c4n3)C2)C1 [Cmpd 1032] | > 5.00
FC(F)(F)CCn1ncc2ncc(N3CCC4(CN(c5ccnc(C(F)(F)F)c5)C4)C3)nc21 [Cmpd 1033] | > 5.00

Same assay, conditions: activation of GCase, EC50 ranges

SMILES | pEC50
FC(F)(F)OCCn1ncc2ncc(N3CCC4(CN(c5ccnc(C(F)(F)F)c5)C4)C3)nc21 [Cmpd 1034] | > 5.00
Cc1nc2cnn(CC(F)F)c2nc1N1CCC2(CN(c3ccnc(C(F)(F)F)c3)C2)C1 [Cmpd 1035] | > 5.00
Cc1nc2cnn(CC(F)F)c2nc1N1CCC2(CN(c3cnc(C(F)(F)F)nc3)C2)C1 [Cmpd 1036] | < 4.00
Cc1ncc(-c2nncs2)nc1N1CCC2(CN(c3ccnc(C(F)(F)F)c3)C2)C1 [Cmpd 1037] | > 5.00
Cc1ncc(-c2nncs2)nc1N1CCC2(CN(c3cnc(C(F)(F)F)nc3)C2)C1 [Cmpd 1038] | 4.30 to 5.00
Cc1cnc(N2CC3(CCN(c4cnc5cnn(CC(F)F)c5n4)C3)C2)cn1 [Cmpd 1039] | 4.30 to 5.00
Cc1cc(N2CC3(CCN(c4cnc5cnn(C6COC6)c5n4)C3)C2)cc(C(F)(F)F)n1 [Cmpd 1040] | 4.30 to 5.00
Cc1c(N2CC3(CCN(c4cnc5cnn(C6COC6)c5n4)C3)C2)ccnc1C(F)(F)F [Cmpd 1041] | < 4.00
Cc1cnc(C(F)(F)F)cc1N1CC2(CCN(c3cnc4cnn(C5COC5)c4n3)C2)C1 [Cmpd 1042] | < 4.00
CCn1c(-c2ccccc2)nc2ncc(N3CCC4(CN(c5ccnc(C(F)(F)F)c5)C4)C3)nc21 [Cmpd 1043] | > 5.00
CCn1c(-c2cncc(F)c2)nc2ncc(N3CCC4(CN(c5ccnc(C(F)(F)F)c5)C4)C3)nc21 [Cmpd 1044] | > 5.00
CCn1c(-c2cncc(F)c2)nc2nc(N3CCC4(CN(c5ccnc(C(F)(F)F)c5)C4)C3)cnc21 [Cmpd 1045] | 4.00 to 4.30
FC(F)Cn1ncc2ncc(N3CCC4(C3)CN(c3nnc(C(F)(F)F)s3)C4)nc21 [Cmpd 1046] | 4.30 to 5.00
Cc1sc(N2CC3(CCN(c4cnc5cnn(CC(F)F)c5n4)C3)C2)nc1C(F)(F)F [Cmpd 1047] | < 4.00
CC[C@H]1N(c2cnc(C(F)(F)F)nc2)C[C@]12CCN(c1cnc3cnn(CC(F)F)c3n1)C2 [Cmpd 1048] | 4.30 to 5.00
CC[C@@H]1N(c2cnc(C(F)(F)F)nc2)C[C@]12CCN(c1cnc3cnn(CC(F)F)c3n1)C2 [Cmpd 1049] | 4.30 to 5.00
CCn1c(N2CCC3(CN(c4nnc(C(F)(F)F)s4)C3)C2)nc2c(cnn2CC(F)F)c1=O [Cmpd 1050] | 4.30 to 5.00
FC(F)Cn1ncc2cnc(N3CCC4(C3)CN(c3nnc(C(F)(F)F)s3)C4)nc21 [Cmpd 1051] | 4.00 to 4.30
Cc1nnc(-c2cncc(N3CCC4(CN(c5ccnc(C(F)(F)F)c5)C4)C3)n2)s1 [Cmpd 1052] | > 5.00
Cc1nc(N2CCC3(CCN(c4nc5c(cnn5CC(F)F)c(=O)n4C)CC3)C2)cc(C(F)(F)F)n1 [Cmpd 1053] | > 5.00
Cn1c(N2CCC3(CCN(c4ccc(C(F)(F)F)nc4)C3)CC2)nc2c(cnn2CC(F)F)c1=O [Cmpd 1054] | > 5.00
FC(F)(F)c1cc(N2CCC3(CCN(c4cnc5cnn(C6COC6)c5n4)CC3)C2)cnn1 [Cmpd 1055] | > 5.00
Cc1nc(C(F)(F)F)ncc1N1CCC2(CCN(c3cnc4cnn(C5COC5)c4n3)CC2)C1 [Cmpd 1056] | 4.30 to 5.00
Cn1c(N2CCC3(CCN(c4nccc(C(F)(F)F)n4)C3)CC2)nc2c(cnn2C2COC2)c1=O [Cmpd 1057] | 4.30 to 5.00
Cn1c(N2CCC3(CCN(c4ncc(C(F)(F)F)cn4)C3)CC2)nc2c(cnn2C2COC2)c1=O [Cmpd 1058] | 4.30 to 5.00
Cn1c(N2CCC3(CCN(c4ccnc(C(F)(F)F)c4)C3)CC2)nc2c(cnn2C2COC2)c1=O [Cmpd 1059] | > 5.00
Cn1c(N2CCC3(CCN(c4ccnc(C(F)(F)F)n4)C3)CC2)nc2c(cnn2C2COC2)c1=O [Cmpd 1060] | > 5.00
O=C([C@H]1CCn2c1nccc2=O)N1CCC2(C1)CN(c1ccnc(C(F)(F)F)c1)C2 [Cmpd 1061] | 4.00 to 4.30
FC(F)c1nnc(-c2cncc(N3CCC4(CN(c5ccnc(C(F)(F)F)c5)C4)C3)n2)s1 [Cmpd 1062] | 4.30 to 5.00
